According to US12295959B2 (priority 2021, dated 2025):

Legend:
[1] = target: T1, 5-HT2A (Homo sapiens, UniProt P28223); test: Serotonin 5-HT2A in vitro radioligand binding competition assay ([3H]-DOI); parameters: purchased Epics Therapeutics S.A. (Belgium) FAST-0505B; host or cells: membrane extracts; settings: [3H]-DOI competition, membrane extracts
Description: Serotonin 5-HT2A In Vitro Radioligand Binding Competition Assay. The 5-HT2A radioligand binding competition assay was performed at Epics Therapeutics S.A. (Belgium, FAST-0505B) using conventional methods. Briefly, competition binding was performed in duplicate in the wells of a 96 well plate (Master Block, Greiner, 786201) containing binding buffer (optimized for each receptor), membrane extracts (amount of protein/well optimized for each receptor), radiotracer [^3H]-DOI (final concentration optimized for each receptor) and test compound. Nonspecific binding was determined by co-incubation with 200-fold excess of cold competitor. The samples were incubated in a final volume of 0.1 ml at a temperature and for a duration optimized for each receptor and then filtered over filter plates. Filters were washed six times with 0.5 ml of ice-cold washing buffer (optimized for each receptor) and 50 μl of Microscint 20 (Packard) was added in each well. The plates were incubated 15 min on an orbital shaker and then counted with a TopCount™ for 1 min/well.

[2] = target: T1, 5-HT2A; test: Serotonin 5-HT2A in vitro cellular IPOne agonism assay (HTRF); assay type: cell-based; parameters: host or cells: CHO-K1; settings: CHO-K1 cells, agonist mode
Description: (§1) Serotonin 5-HT2A In Vitro Cellular IPOne Agonism Assay. The 5-HT2A IPOne HTRF assay was performed at Epics Therapeutics S.A. (Belgium, FAST-0505I) using conventional methods. Briefly, CHO-K1 cells expressing human recombinant 5-HT2A receptor grown to mid-log phase in culture media without antibiotics were detached with PBS-EDTA, centrifuged, and resuspended in medium without antibiotics buffer. 20,000 cells were distributed in a 96 well plate and incubated overnight at 37° C. with 5% CO2.
For agonist testing, the medium was removed and 20 μl of assay buffer plus 20 μl of test compound or reference agonist are added in each well. The plate was incubated for 60 min. at 37° C. with 5% CO2.
(§2) After addition of the lysis buffer containing IP1-d2 and anti-IP1 cryptate detection reagents, plates were incubated 1-hour at room temperature, and fluorescence ratios were measured according to the manufacturer specification, with the HTRF kit.

[3] = tested on: rat cortical neurons; test: Neurite outgrowth assay; assay type: cell-based; parameters: key: A: Statistically significant mean increase as a percent of DMSO control at 10 μM or less.; B: No statistically significant mean increase as a percent of DMSO control at 10 μM or less; settings: 72 h, 10 μM or less, vs DMSO control
Text: Neurite Outgrowth Assay. Changes in the pattern of neurite outgrowth have been implicated in psychiatric and neurodegenerative disorders as well as traumatic injuries. The discovery of new compounds that can positively affect neuritogenesis are important for developing new therapeutics for neurological diseases. Measurement of neurite outgrowth of rat cortical neurons using an automated image-based assay was used to determine the neuroplastic effects of the compounds of the present invention. The neurite outgrowth assay was performed at Neurofit SAS (France) as described below.
Pregnant Wistar rats (Janvier; France) were used for the study. They were delivered 6 days before their use. Upon arrival at Neurofit animal facility, they were housed one per cage and maintained in a room with controlled temperature (21-22° C.) and a reversed light-dark cycle (12 h/12 h; lights on: 17:30-05:30; lights off: 05:30-17:30) with food and water available ad libitum.
Female Wistar rats of 17 days gestation were killed by cervical dislocation and the fetuses were removed from the uterus. Their brains were placed in ice-cold medium of Leibovitz (L15, Gibco, Fisher bioblock, France). Cortices were dissected and meninges were carefully removed. The cortical neurons were dissociated by trypsinization for 30 min at 37° C. (trypsin-EDTA, Gibco) in presence of 0.1 mg/ml DNAse I (Roche, France). The reaction was stopped by addition of Dulbecco's Modified Eagle Medium (DMEM; Gibco) with 10% of fetal bovine serum (FBS; Gibco). The suspension was triturated with a 10-ml pipette and using a needle syringe 21G and centrifuged at 350×g for 10 min at room temperature. The pellet of dissociated cells was resuspended in a medium consisting of Neurobasal (Gibco) supplemented with 2% B27 supplement (Gibco), 0.5 mM L-Glutamine (Gibco), an antibiotic-antimicotic mixture. Viable cells were counted in a Neubauer cytometer using the trypan blue exclusion test (Sigma). Cells were seeded at a density of 10000 cells per well in 96-well plate (Costar) precoated with poly-L-lysine. Test compound at different concentrations were added to the cultures. Donepezil (positive control) was tested at 250 nM.
After 72 h (3 days) of plating, cultures were fixed with paraformaldehyde in PBS (4%, Sigma) for 30 min at 4° C. Then, cells were successively permeabilized with 0.1% Triton X100 for 30 min, saturated with PBS containing 3% of BSA and were incubated 1 h with anti-beta III tubulin antibody (Sigma) at 1/10 000 in PBS containing 0.5% of BSA. Cells were washed three times with PBS containing 0.5% of BSA, and they were incubated 1 h with goat anti-mouse antibody coupled with AF488 (Invitrogen A 11001) diluted at 1/1000 in PBS containing 0.5% of BSA. Finally, nuclei were staining with DAPI 1 mg/ml at 1/1000 in PBS containing 0.5% of BSA. After rinsing with PBS, the plate was filmed and neurite networks were examined and analyzed using High-Content Screening (CellInsight, Thermo Scientific). The average number of neurites per neuron and the average total length of neurites per neuron were the main parameters analyzed. Analysis of data was performed using analysis of variance (ANOVA). The Fisher's Protected Least Significant Difference test was used for multiple comparisons. A p value≤0.05 was considered significant. The software used is StatView 5.0 from SAS Institut.

[4] = target: T1, 5-HT2A; test: Serotonin 5-HT2A in vitro cellular IPOne antagonism assay; assay type: cell-based; parameters: host or cells: CHO-K1; settings: CHO-K1 cells, antagonist mode, reference agonist a-Me-5HT
Description: as §1, with “Serotonin 5-HT2A and 5-HT2C In Vitro” for “Serotonin 5-HT2A In Vitro”, “Cellular IPOne Antagonism Assay. The” for “Cellular IPOne Agonism Assay. The”, “(Belgium, FAST-0505I) in antagonism mode using conventional” for “(Belgium, FAST-0505I) using conventional”
For antagonist testing, a reference agonist a-Me-5HT was added and fluorescence signal monitored for several minutes, followed by addition of 20 μl of assay buffer plus 20 μl of test compound or reference antagonist ketanserin, in each well. The plate was incubated for 60 min. at 37° C. with 5% CO2.
as §2

T1 sequence (P28223 whole entry): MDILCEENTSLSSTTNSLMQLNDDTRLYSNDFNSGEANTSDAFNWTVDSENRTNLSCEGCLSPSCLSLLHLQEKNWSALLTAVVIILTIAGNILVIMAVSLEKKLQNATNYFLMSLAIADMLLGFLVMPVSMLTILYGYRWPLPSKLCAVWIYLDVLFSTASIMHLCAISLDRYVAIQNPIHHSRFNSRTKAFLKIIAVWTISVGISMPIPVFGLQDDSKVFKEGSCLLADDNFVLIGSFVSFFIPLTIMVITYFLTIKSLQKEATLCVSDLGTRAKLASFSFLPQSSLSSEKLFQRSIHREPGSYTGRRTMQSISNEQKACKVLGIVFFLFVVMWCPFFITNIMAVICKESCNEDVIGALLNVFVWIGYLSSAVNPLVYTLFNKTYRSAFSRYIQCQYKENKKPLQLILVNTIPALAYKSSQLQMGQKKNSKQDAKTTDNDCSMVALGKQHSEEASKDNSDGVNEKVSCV

Row | Structure (SMILES) | IC50 [1] [µM] | EC50 [2] [µM] | Increase in Neurite Branching [3] | Increase in Neurite Length [3] | Increase in Neurite Number [3] | IC50 [4] [µM]
1 | CN1CCc2[nH]c3cc(OCc4ccccc4)ccc3c2CC1 [Compound 1, 8-(benzyloxy)-3-methyl-1,2,3,4,5,6-hexahydroazepino[4,5-b]indole] | 0.101 to 1 | > 10 | B | A | A | 0.101 to 1
2 | CN1CCc2[nH]c3cccc(OCc4ccccc4)c3c2CC1 [Compound 2, 10-(benzyloxy)-3-methyl-1,2,3,4,5,6-hexahydroazepino[4,5-b]indole] | < 0.01 | > 10 | B | A | A | 0.01 to 0.1
3 | c1ccc(COc2ccc3c4c([nH]c3c2)CCNCC4)cc1 [Compound 3, 8-(benzyloxy)-1,2,3,4,5,6-hexahydroazepino[4,5-b]indole] | 0.101 to 1 | 0.101 to 1 | A | A | A | –
4 | c1ccc(COc2cccc3[nH]c4c(c23)CCNCC4)cc1 [Compound 4, 10-(benzyloxy)-1,2,3,4,5,6-hexahydroazepino[4,5-b]indole] | 0.01 to 0.1 | < 0.01 | – | B | B | –
5 | Cn1c2c(c3ccc(OCc4ccccc4)cc31)CCNCC2 [Compound 5, 8-(benzyloxy)-6-methyl-1,2,3,4,5,6-hexahydroazepino[4,5-b]indole] | 0.101 to 1 | > 10 | B | B | B | 0.101 to 1
6 | CN1CCc2c(n(C)c3cc(OCc4ccccc4)ccc23)CC1 [Compound 6, 8-(benzyloxy)-3,6-dimethyl-1,2,3,4,5,6-hexahydroazepino[4,5-b]indole] | 0.101 to 1 | > 10 | B | B | B | 0.101 to 1
7 | Fc1ccc(COc2ccc3c4c([nH]c3c2)CCNCC4)cc1 [Compound 7, 8-((4-fluorobenzyl)oxy)~1,2,3,4,5,6-hexahydroazepino[4,5-b]indole] | 0.101 to 1 | 0.101 to 1 | B | B | B | 0.101 to 1
8 | CN1CCc2[nH]c3cc(OCc4ccc(F)cc4)ccc3c2CC1 [Compound 8, 8-((4-fluorobenzyl)oxy)-3-methyl-1,2,3,4,5,6-hexahydroazepino[4,5-b]indole] | 0.101 to 1 | > 10 | A | A | A | 0.01 to 0.1
9 | Cn1c2c(c3ccc(OCc4ccc(F)cc4)cc31)CCNCC2 [Compound 9, 8-((4-fluorobenzyl)oxy)-6-methyl-1,2,3,4,5,6-hexahydroazepino[4,5-b]indole] | 0.101 to 1 | > 10 | B | B | B | 0.101 to 1
10 | CN1CCc2c(n(C)c3cc(OCc4ccc(F)cc4)ccc23)CC1 [Compound 10, 8-((4-fluorobenzyl)oxy)-3,6-dimethyl-1,2,3,4,5,6-hexahydroazepino[4,5-b]indole] | 0.101 to 1 | > 10 | – | B | – | 0.01 to 0.1
11 | c1ccc(Oc2ccc3c4c([nH]c3c2)CCNCC4)cc1 [Compound 11, 8-phenoxy-1,2,3,4,5,6-hexahydroazepino[4,5-b]indole] | 1 to 10 | 1 to 10 | – | – | – | 0.101 to 1
12 | Cn1c2c(c3ccc(Oc4ccccc4)cc31)CCNCC2 [Compound 13, 6-methyl-8-phenoxy-1,2,3,4,5,6-hexahydroazepino[4,5-b]indole] | 1 to 10 | 0.101 to 1 | – | – | – | –
13 | Fc1ccc(Oc2ccc3c4c([nH]c3c2)CCNCC4)cc1 [Compound 15, 8-(4-fluorophenoxy)-1,2,3,4,5,6-hexahydroazepino[4,5-b]indole] | 0.101 to 1 | 0.101 to 1 | A | A | A | –
14 | Cn1c2c(c3ccc(Oc4ccc(F)cc4)cc31)CCNCC2 [Compound 17, 8-(4-fluorophenoxy)-6-methyl-1,2,3,4,5,6-hexahydroazepino[4,5-b]indole] | 0.101 to 1 | 0.101 to 1 | – | – | – | –
15 | c1ccc(Oc2cccc3[nH]c4c(c23)CCNCC4)cc1 [Compound 20, 10-phenoxy-1,2,3,4,5,6-hexahydroazepino[4,5-b]indole] | 0.01 to 0.1 | 0.01 to 0.1 | – | B | – | –
16 | Fc1ccc(Oc2cccc3[nH]c4c(c23)CCNCC4)cc1 [Compound 21, 10-(4-fluorophenoxy)-1,2,3,4,5,6-hexahydroazepino[4,5-b]indole] | 0.01 to 0.1 | 0.01 to 0.1 | B | B | B | –
17 | Cn1c2c(c3c(Oc4ccc(F)cc4)cccc31)CCNCC2 [Compound 23, 10-(4-fluorophenoxy)-6-methyl-1,2,3,4,5,6-hexahydroazepino[4,5-b]indole] | 0.01 to 0.1 | 0.101 to 1 | – | – | – | –
18 | c1ccc(COc2cccc3c4c([nH]c23)CCNCC4)cc1 [Compound 27, 7-(benzyloxy)-1,2,3,4,5,6-hexahydroazepino[4,5-b]indole] | 0.101 to 1 | 0.101 to 1 | – | A | – | –
